Here are results for 32 molecules from US8338565B2, “Macrocyclic compounds for inhibition of tumor necrosis factor alpha” (Ensemble Therapeutics Corporation, priority 2008, dated 2012).

The structures appear in SMILES notation. Numbered stars: 1 amine (or outer) side, 2 acyl side, 3 side chain; on linkers, the order of the positions; unused ones are H or OH. Bridge positions count the residues as written; N and C are the ends. Square brackets hold non-standard residues; d marks the D form. Peptide text beside a SMILES is read from it. * marks the point of attachment. Phe(3-Ph) = N[C@@H](Cc1cccc(-c2ccccc2)c1)C(=O)O; Phe(4-CF3) = N[C@@H](Cc1ccc(C(F)(F)F)cc1)C(=O)O; Phe(4-COOH) = N[C@@H](Cc1ccc(C(=O)O)cc1)C(=O)O; Bip = N[C@@H](Cc1ccc(-c2ccccc2)cc1)C(=O)O; dBip = N[C@H](Cc1ccc(-c2ccccc2)cc1)C(=O)O; dPhe(4-NH2) = Nc1ccc(C[C@@H](N)C(=O)O)cc1; dPhe(2-CN) = N#Cc1ccccc1C[C@@H](N)C(=O)O; Phe(4-NH2) = Nc1ccc(C[C@H](N)C(=O)O)cc1; Met(O2) = CS(=O)(=O)CC[C@H](N)C(=O)O; d(hPhe) = N[C@H](CCc1ccccc1)C(=O)O; hPhe = N[C@@H](CCc1ccccc1)C(=O)O; d2Thi = N[C@H](Cc1cccs1)C(=O)O; dPhg = N[C@@H](C(=O)O)c1ccccc1; Suc = O=C(CCC(=O)[*:2])[*:1]; Dap = NC[C@H](N)C(=O)O; OtBu = CC(C)(C)O*; βAla = NCCC(=O)O

In the first assay the target is T1, TNFα / TNFα receptor (TNFα R1/Fc) (Homo sapiens, UniProt P01375).
T1 construct: purchased R&D Systems
T1 sequence (P01375 77-233 limits assumed, species assumed): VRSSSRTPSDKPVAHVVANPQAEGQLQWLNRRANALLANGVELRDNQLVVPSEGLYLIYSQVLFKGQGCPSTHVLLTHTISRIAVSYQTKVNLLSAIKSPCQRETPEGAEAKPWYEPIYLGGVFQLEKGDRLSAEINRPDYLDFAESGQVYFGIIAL
The assay can be described thus: Inhibition of binding of TNFα to the TNFα receptor (plate ELISA competition). The settings on record: Activity (IC50, inhibition of TNFα binding to TNFα R1/Fc), Table 2. The procedure: The compounds listed in Table 2 below were assayed for ability to inhibit binding of TNFα to the TNFα receptor (TNFα R1/Fc). The assays were performed as described in the following procedure: TNFα (R&D Systems) was coated on high binding plate wells (Corning 96-well) at a single uniform concentration of 15 nM, 100 μL/well in PBS. The coating proceeded for 30 minutes at 37° C. then 10 minutes at 4° C. The coated plate was washed with PBST, then 250 μL/well of blocking solution (PBST 0.1% BSA, bovine serum albumin) was added and incubation proceeded for 30-45 minutes at room temperature with agitation. The solution phase competition proceeded separately with the dilutions of test compound in PBST (phosphate buffered saline with Tween 20), 2% DMSO in a polypropylene plate (Corning 96-well storage plate) with a single concentration, 8.33 nM of the high affinity receptor for TNFα (R&D Systems). This solution phase incubation proceeded for 30 minutes at room temperature with agitation and was then added to the washed TNFα coated assay plate, 100 μL/well, and was incubated for a further 30 minutes at room temperature with agitation. The assay plate was washed and 100 μL goat anti-human IgG (Fc) HRP labeled antibody in PBST, 13 pM, (KPL Cat#04-10-2) was added to each well. This incubation proceeded for 25-30 minutes at room temperature with agitation. Following this incubation step, the plate was washed and a 100 μL TMB solution (SUREBLUE™ TMB Peroxidase substrate, KPL) was added per well and allowed to stand approximately 3-5 minutes for development. The TMB reaction was stopped with the addition of 0.5N HCl and then the plate was read for absorbance at 450 nm.
In general terms: ELISA stands for enzyme-linked immunosorbent assay.
For the molecule `O=C1COc2ccc(cc2)C[C@@H](C(=O)N[C@H](Cc2ccccc2)C(=O)O)NC(=O)[C@H](CCc2ccccc2)NC(=O)[C@@H](Cc2ccc(-c3ccccc3)cc2)NC(=O)[C@H](Cc2cccs2)N1` [Compound 480], the IC50 is 10 to 30 µM.

`O=C1COc2ccc(cc2)C[C@@H](C(=O)N[C@H](Cc2ccccc2)C(=O)O)NC(=O)[C@H](Cc2cccs2)NC(=O)[C@@H](Cc2ccc(-c3ccccc3)cc2)NC(=O)[C@H](Cc2cccs2)N1` [Compound 588] gave an IC50 below 10 µM.

The assay is the same for the next values; noted with them: Table 2; read-out: Activity (IC50, inhibition of TNFα binding to TNFα R1/Fc).
With `O=C1COc2ccc(cc2)C[C@@H](C(=O)O)NC(=O)[C@@H](Cc2cccc(C(F)(F)F)c2)NC(=O)[C@H](Cc2ccc(-c3ccccc3)cc2)NC(=O)[C@@H](Cc2cccs2)N1` [Compound 533], the IC50 is above 100 µM.

Take `CC(C)(C)OC(=O)CC[C@@H]1NC(=O)[C@H](Cc2ccc(-c3ccccc3)cc2)NC(=O)[C@@H](Cc2cccs2)NC(=O)CCC(=O)Nc2ccc(cc2)C[C@@H](C(=O)O)NC1=O` [Compound 66] ([d2Thi][Bip]E(OtBu)[Phe(4-NH2)]-OH; linker N-4 via Suc): the IC50 is above 100 µM.

Consider `O=C1COc2ccc(cc2)C[C@@H](C(=O)O)NC(=O)[C@H](Cc2ccc(-c3cccnc3)cc2)NC(=O)[C@@H](Cc2ccc(-c3ccccc3)cc2)NC(=O)[C@H](Cc2cccs2)N1` [Compound 633], for which the IC50 was below 10 µM.

In the case of `O=C(O)CCC(=O)N[C@H]1CNC(=O)c2ccc(cc2)C[C@@H](C(=O)O)NC(=O)[C@@H](Cc2ccccc2)NC(=O)[C@H](Cc2ccc(-c3ccccc3)cc2)NC(=O)[C@@H](CCc2ccccc2)NC1=O` [Compound 267] (Suc-[Dap][d(hPhe)][Bip][dF][Phe(4-COOH)]-OH; lactam 1-5), the IC50 was above 100 µM.

Consider `O=C1COc2ccc(cc2)C[C@@H](C(=O)O)NC(=O)[C@@H](Cc2ccc(F)cc2)NC(=O)[C@H](Cc2ccc(-c3ccccc3)cc2)NC(=O)[C@@H](Cc2cccs2)N1` [Compound 532], for which the IC50 is above 100 µM.

Consider `C[C@@H]1NC(=O)[C@@H](Cc2cccs2)NC(=O)CCC(=O)Nc2ccc(cc2)C[C@@H](C(=O)O)NC(=O)[C@@H](Cc2ccccc2)NC1=O` [Compound 45] ([d2Thi]A[dF][Phe(4-NH2)]-OH; linker N-4 via Suc), for which the IC50 was above 100 µM.

With `O=C1COc2ccc(cc2)C[C@@H](C(=O)O)NC(=O)[C@H](CCc2ccccc2)NC(=O)[C@@H](Cc2ccc(-c3ccccn3)cc2)NC(=O)[C@H](Cc2ccncc2)N1` [Compound 664], the IC50 was 30 to 100 µM.

In the case of `O=C1N[C@H](Cc2ccccc2)C(=O)N[C@H](C(=O)O)Cc2ccc(cc2)NC(=O)[C@H](O)[C@@H](O)C(=O)N[C@H](Cc2cccs2)C(=O)NC1c1ccc(Br)cc1` (some centres unmarked) [Compound 294], the IC50 is 30 to 100 µM.

Regarding `O=C(O)[C@@H]1Cc2ccc(cc2)NC(=O)[C@H](O)[C@@H](O)C(=O)N[C@H](Cc2cccs2)C(=O)N[C@@H](Cc2ccc(-c3ccccc3)cc2)C(=O)N[C@H](Cc2cccs2)C(=O)N1` [Compound 283], the IC50 is below 10 µM.

As for `N#Cc1cccc(C[C@H]2NC(=O)[C@H](O)[C@@H](O)C(=O)Nc3ccc(cc3)C[C@@H](C(=O)O)NC(=O)[C@@H](Cc3ccccc3)NC(=O)[C@H](Cc3ccc(-c4ccccc4)cc3)NC2=O)c1` [Compound 316], the IC50 fell in the range of 10 to 30 µM.

Turning to `O=C1COc2ccc(cc2)C[C@@H](C(=O)NCCCS(=O)(=O)O)NC(=O)[C@H](CCc2ccccc2)NC(=O)[C@@H](Cc2ccc(-c3ccccc3)cc2)NC(=O)[C@H](Cc2ccncc2)N1` [Compound 599], the IC50 was below 10 µM.

As for `O=C(O)CC[C@@H]1NC(=O)[C@H](Cc2ccc(-c3ccccc3)cc2)NC(=O)[C@H](Cc2cccs2)NC(=O)COc2ccc(cc2)C[C@@H](C(=O)O)NC1=O` [Compound 258], the IC50 is above 100 µM.

`O=C1CCC(=O)N[C@H](Cc2cccs2)C(=O)N[C@@H](Cc2ccc(-c3ccccc3)cc2)C(=O)N[C@@H](Cc2ccccc2)C(=O)N[C@@H](C(=O)O)Cc2ccc(cc2)N1` [Compound 497] ([d2Thi][Bip]F[dPhe(4-NH2)]-OH; linker N-4 via Suc): the IC50 was above 100 µM.

With `O=C1CCNC(=O)c2ccc(cc2)C[C@@H](C(=O)O)NC(=O)[C@H](Cc2ccccc2)NC(=O)[C@H](Cc2ccc(-c3ccccc3)cc2)NC(=O)[C@H](CCc2ccccc2)N1` [Compound 463] ([βAla][hPhe][Bip]F[Phe(4-COOH)]-OH; lactam N-5), the IC50 was above 100 µM.

In the case of `O=C(O)[C@H](Cc1ccccc1)NC(=O)[C@@H]1Cc2ccc(cc2)NC(=O)[C@H](O)[C@@H](O)C(=O)N[C@@H](Cc2cccs2)C(=O)N[C@H](Cc2ccc(Br)cc2)C(=O)N[C@@H](Cc2ccccc2)C(=O)N1` [Compound 439], the IC50 is 30 to 100 µM.

For the molecule `O=C1COc2ccc(cc2)C[C@@H](C(=O)NCS(=O)(=O)O)NC(=O)[C@H](Cc2ccccc2F)NC(=O)[C@@H](Cc2ccc(-c3ccccc3)cc2)NC(=O)[C@H](Cc2cccs2)N1` [Compound 612], the IC50 was 10 to 30 µM.

For the molecule `CN1C(=O)COc2ccc(cc2)C[C@@H](C(=O)N[C@H](CCc2ccccc2)C(=O)O)NC(=O)[C@H](Cc2c[nH]c3ccccc23)NC(=O)[C@@H](Cc2ccc(-c3ccccc3)cc2)NC(=O)[C@@H]1Cc1c[nH]c2ccccc12` [Compound 747], the IC50 was below 10 µM.

As for `O=C1CCC(=O)N[C@H](CCc2ccccc2)C(=O)N[C@@H](Cc2cccc(-c3ccccc3)c2)C(=O)N[C@H](Cc2ccccc2)C(=O)N[C@H](C(=O)O)Cc2ccc(cc2)N1` [Compound 113] ([d(hPhe)][Phe(3-Ph)][dF][Phe(4-NH2)]-OH; linker N-4 via Suc), the IC50 lay in the range of 10 to 30 µM.

As to `N#Cc1ccccc1C[C@H]1NC(=O)CCC(=O)Nc2ccc(cc2)C[C@@H](C(=O)O)NC(=O)[C@@H](Cc2ccccc2)NC(=O)[C@H](Cc2ccc(C(F)(F)F)cc2)NC1=O` [Compound 129] ([dPhe(2-CN)][Phe(4-CF3)][dF][Phe(4-NH2)]-OH; linker N-4 via Suc), the IC50 was in the range of 30 to 100 µM.

For the molecule `O=C(O)[C@@H]1Cc2ccc(cc2)NC(=O)[C@H](O)[C@@H](O)C(=O)N[C@@H](Cc2cccs2)C(=O)N[C@@H](Cc2ccc(-c3ccccc3)cc2)C(=O)N[C@H](Cc2ccccc2)C(=O)N1` [Compound 270], the IC50 is above 100 µM.

With `O=C1COc2ccc(cc2)C[C@@H](C(=O)O)NC(=O)[C@@H](CCc2ccccc2)NC(=O)[C@H](Cc2ccc(C(F)(F)F)cc2)NC(=O)[C@@H](Cc2ccc(C(F)(F)F)cc2)N1` [Compound 146], the IC50 fell in the range of 10 to 30 µM.

On to `CS(=O)(=O)CC[C@@H]1NC(=O)[C@@H](Cc2cccs2)NC(=O)CCC(=O)Nc2ccc(cc2)C[C@@H](C(=O)O)NC(=O)[C@@H](Cc2ccccc2)NC1=O` [Compound 98] ([d2Thi][Met(O2)][dF][Phe(4-NH2)]-OH; linker N-4 via Suc), for which the IC50 is above 100 µM.

For the molecule `O=C1CCC(=O)N[C@H](Cc2c[nH]c3ccccc23)C(=O)N[C@@H](Cc2ccc(-c3ccccc3)cc2)C(=O)N[C@H](Cc2ccccc2)C(=O)N[C@H](C(=O)O)Cc2ccc(cc2)N1` [Compound 125] ([dW][Bip][dF][Phe(4-NH2)]-OH; linker N-4 via Suc), the IC50 was above 100 µM.

With `O=C1N[C@H](Cc2ccccc2)C(=O)N[C@@H](C(=O)O)Cc2ccc(cc2)NC(=O)[C@H](O)[C@@H](O)C(=O)N[C@H](Cc2ccccc2)C(=O)N[C@H]1Cc1ccc(Cl)cc1Cl` [Compound 243], the IC50 lay within 30 to 100 µM.

In the case of `O=C1CCNC(=O)c2ccc(cc2)C[C@@H](C(=O)O)NC(=O)[C@H](Cc2ccccc2)NC(=O)[C@@H](Cc2ccc(-c3ccccc3)cc2)NC(=O)[C@H](CCc2ccccc2)N1` [Compound 465] ([βAla][hPhe][dBip]F[Phe(4-COOH)]-OH; lactam N-5), the IC50 was below 10 µM.

For the molecule `O=C1CCC(=O)N[C@H](Cc2cccs2)C(=O)N[C@@H](Cc2ccc(-c3ccccc3)cc2)C(=O)N[C@H](c2ccccc2)C(=O)N[C@H](C(=O)O)Cc2ccc(cc2)N1` [Compound 76] ([d2Thi][Bip][dPhg][Phe(4-NH2)]-OH; linker N-4 via Suc), the IC50 is 10 to 30 µM.

Turning to `O=C1COc2ccc(cc2)C[C@@H](C(=O)O)NC(=O)[C@@H](Cc2cccs2)NC(=O)[C@H](Cc2ccc(-c3ccccc3)cc2)NC(=O)[C@@H](Cc2cccs2)N1` [Compound 538], the IC50 is above 100 µM.

With `O=C1COc2ccc(cc2)C[C@@H](C(=O)O)NC(=O)[C@H](CCc2ccccc2)NC(=O)[C@@H](Cc2ccc(-c3ccccc3)cc2)NC(=O)[C@H](CCc2ccccc2)N1` [Compound 513], the IC50 is below 10 µM.

Turning to `O=C1COc2ccc(cc2)C[C@@H](C(=O)O)NC(=O)[C@H](CCc2ccccc2)NC(=O)[C@@H](Cc2ccc(-c3ccccc3)cc2)NC(=O)[C@H](Cc2ccco2)N1` [Compound 687], the IC50 was below 10 µM.

With `N=C(N)NCCC[C@H]1NC(=O)[C@H](Cc2ccc(-c3ccccc3)cc2)NC(=O)[C@@H](Cc2cccs2)NC(=O)CCC(=O)Nc2ccc(cc2)C[C@@H](C(=O)O)NC1=O` [Compound 73] ([d2Thi][Bip][dR][Phe(4-NH2)]-OH; linker N-4 via Suc), the IC50 is above 100 µM.
